{
  "source": "patent US20110142889A1",
  "about": "“COMPOSITIONS AND METHODS FOR ORAL DRUG DELIVERY” (NOD Pharmaceuticals, Inc., priority 2009, published 2011)",
  "key": {"[1]": {"conditions": "colon suppository containing 25 mg sodium caprate; cited from earlier work"}, "[2]": {"conditions": "estimated; cited from earlier work"}, "[3]": {"test_system": "blood glucose", "assay": "effect of oral insulin on blood glucose in somatostatin infused dogs (Example 9)", "type": "in vivo, beagle dogs", "conditions": "somatostatin infusion 1 μg/kg/min; FIG. 8B", "excerpt": "Water was supplied ad libitum."}, "[4]": {"conditions": "dog, in vivo"}},
  "data": [
    {"compound": "CC1(C)S[C@@H]2[C@H](NC(=O)[C@H](N)c3ccccc3)C(=O)N2[C@H]1C(=O)O", "note": "[ampicillin]", "values": [
      {"measurement": "increase of area under the serum concentration-time curve (AUC) compared to ampicillin alone", "setting": "[1]", "value": 2.3, "unit": "fold"},
      {"measurement": "increase of maximum serum concentration (Cmax) compared to ampicillin alone", "setting": "[1]", "value": 2.6, "unit": "fold"}
    ]},
    {"compound": "CCCCCCCCCC(=O)[O-].[Na+]", "note": "[sodium caprate]", "values": [
      {"measurement": "concentration needed to achieve a permeation enhancing effect", "setting": "[2]", "value": "10 to 13", "unit": "mM"}
    ]},
    {"compound": "insulin [Insulin injection]", "values": [
      {"measurement": "effect on blood glucose", "setting": "[3]", "value": "rapid and profound reduction of glucose levels"},
      {"measurement": "effect on serum insulin concentration", "setting": "[4]", "value": "large increase in insulin concentration"}
    ]}
  ]
}
